Test system: MOLM-14 F691L (endogenous FLT3 ITD and transfected FLT3 F691L)
Assay: MOLM-14 F691L cell proliferation assay (CellTiter-Glo)
Format: cell-based
Conditions: Homo sapiens, MOLM-14, 72 h; 3 d growth, GMean
Procedure, shortened: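 Three-day proliferation at 37 °C/5% CO2 of FLT3-ITD MOLM-14 lines with D835Y or F691L mutation, seeded 1×10^4 per well. Compounds at eight points, top 1 μM final, 0.2% DMSO. ATP luminescence (CellTiter-Glo) gives IC50.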

IC50, 0.0001 to 10 µM:
COCCn1cc(Nc2ncc(-c3ccc(CC(=O)Nc4ccc(C(F)(F)F)cn4)c(F)c3)cn2)cn1 [Compound P-0269, 2-[2-fluoro-4-[2-[[1-(2-methoxyethyl)pyrazol-4-yl]amino]pyrimidin-5-yl]phenyl]-N-[5-(trifluoromethyl)-2-pyridyl]acetamide]
COc1ncc(NC(=O)Cc2ccc(-c3cnc(Nc4cnn(C5CC5)c4)nc3)cc2F)cc1C(F)(F)F [Compound P-0241, 2-[4-[2-[(1-cyclopropylpyrazol-4-yl)amino]pyrimidin-5-yl]-2-fluoro-phenyl]-N-[6-methoxy-5-(trifluoromethyl)-3-pyridyl]acetamide]
Cc1ncc(NC(=O)Cc2ccc(-c3cnc(Nc4cnn(C5CC5)c4)nc3)cc2F)cc1C(F)(F)F [Compound P-0239, 2-[4-[2-[(1-cyclopropylpyrazol-4-yl)amino]pyrimidin-5-yl]-2-fluoro-phenyl]-N-[6-methyl-5-(trifluoromethyl)-3-pyridyl]acetamide]
CCn1cc(Nc2ncc(-c3cc(F)c(CC(=O)Nc4cnc(OC)c(C(F)(F)F)c4)cc3F)cn2)cn1 [Compound P-0247, 2-[4-[2-[(1-ethylpyrazol-4-yl)amino]pyrimidin-5-yl]-2,5-difluoro-phenyl]-N-[6-methoxy-5-(trifluoromethyl)-3-pyridyl]acetamide]
COCCn1cc(Nc2ncc(-c3ccc(CC(=O)Nc4cncc(C(F)(F)F)c4)c(F)c3)cn2)cn1 [Compound P-0267, 2-[2-fluoro-4-[2-[[1-(2-methoxyethyl)pyrazol-4-yl]amino]pyrimidin-5-yl]phenyl]-N-[5-(trifluoromethyl)-3-pyridyl]acetamide]
COc1ncc(NC(=O)Cc2ccc(-c3cnc4[nH]c(-c5cnn(C(F)F)c5)cc4c3)cc2F)cc1C(F)(F)F [Compound P-0015, 2-[4-[2-[1-(difluoromethyl)pyrazol-4-yl]-1H-pyrrolo[2,3-b]pyridin-5-yl]-2-fluoro-phenyl]-N-[6-methoxy-5-(trifluoromethyl)-3-pyridyl]acetamide]
Cc1ncc(NC(=O)Cc2ccc(-c3cnc(Nc4cnn(C(F)F)c4)nc3)cc2)cc1C(F)(F)F [Compound P-0210, 2-[4-[2-[[1-(difluoromethyl)pyrazol-4-yl]amino]pyrimidin-5-yl]phenyl]-N-[6-methyl-5-(trifluoromethyl)-3-pyridyl]acetamide]
Cc1ncc(NC(=O)Cc2ccc(-c3cnc(Nc4cnn(C5CC5)c4)nc3)cc2)cc1C(F)(F)F [Compound P-0232, 2-[4-[2-[(1-cyclopropylpyrazol-4-yl)amino]pyrimidin-5-yl]phenyl]-N-[6-methyl-5-(trifluoromethyl)-3-pyridyl]acetamide]
COc1ncc(NC(=O)Cc2ccc(-c3cnc(Nc4cnn(C(F)F)c4)nc3)cc2)cc1C(F)(F)F [Compound P-0211, 2-[4-[2-[[1-(difluoromethyl)pyrazol-4-yl]amino]pyrimidin-5-yl]phenyl]-N-[6-methoxy-5-(trifluoromethyl)-3-pyridyl]acetamide]
COc1ncc(NC(=O)Cc2ccc(-c3cnc(Nc4cn[nH]c4C)nc3)cc2)cc1C(F)(F)F [Compound P-0221, N-[6-methoxy-5-(trifluoromethyl)-3-pyridyl]-2-[4-[2-[(5-methyl-1H-pyrazol-4-yl)amino]pyrimidin-5-yl]phenyl]acetamide]
CCOc1n[nH]c2ncc(-c3ccc(CC(=O)Nc4cnc(OC)c(C(F)(F)F)c4)cc3F)cc12 [Compound P-0202, 2-[4-(3-ethoxy-1H-pyrazolo[3,4-b]pyridin-5-yl)-3-fluoro-phenyl]-N-[6-methoxy-5-(trifluoromethyl)-3-pyridyl]acetamide]
CCn1cc(Nc2ncc(-c3ccc(CC(=O)Nc4ccc(C(F)(F)F)nc4)c(F)c3)cn2)cn1 [Compound P-0257, 2-[4-[2-[(1-ethylpyrazol-4-yl)amino]pyrimidin-5-yl]-2-fluoro-phenyl]-N-[6-(trifluoromethyl)-3-pyridyl]acetamide]
CCn1cc(Nc2ncc(-c3ccc(CC(=O)Nc4cnc(OC)c(C(F)(F)F)c4)cc3)cn2)cn1 [Compound P-0253, 2-[4-[2-[(1-ethylpyrazol-4-yl)amino]pyrimidin-5-yl]phenyl]-N-[6-methoxy-5-(trifluoromethyl)-3-pyridyl]acetamide]
COCCn1cc(Nc2ncc(-c3ccc(CC(=O)Nc4cnc(Cl)c(C(F)(F)F)c4)c(F)c3)cn2)cn1 [Compound P-0266, N-[6-chloro-5-(trifluoromethyl)-3-pyridyl]-2-[2-fluoro-4-[2-[[1-(2-methoxyethyl)pyrazol-4-yl]amino]pyrimidin-5-yl]phenyl]acetamide]
COc1ncc(NC(=O)Cc2ccc(-c3cnc4[nH]c(C#CC(C)(C)O)cc4c3)cc2)cc1C(F)(F)F [Compound P-0214, 2-(4-(2-(3-hydroxy-3-methylbut-1-yn-1-yl)-1H-pyrrolo[2,3-b]pyridin-5-yl)phenyl)-N-(6-methoxy-5-(trifluoromethyl)pyridin-3-yl)acetamide]
COc1ncc(NC(=O)Cc2ccc(-c3cnc4[nH]nc(C5CC5)c4c3)cc2F)cc1C(F)(F)F [Compound P-0262, 2-[4-(3-cyclopropyl-1H-pyrazolo[3,4-b]pyridin-5-yl)-2-fluoro-phenyl]-N-[6-methoxy-5-(trifluoromethyl)-3-pyridyl]acetamide]
COc1ncc(NC(=O)Cc2ccc(-c3cnc4[nH]c(C#Cc5cncn5C)cc4c3)cc2)cc1C(F)(F)F [Compound P-0227, N-[6-methoxy-5-(trifluoromethyl)-3-pyridyl]-2-[4-[2-[2-(3-methylimidazol-4-yl)ethynyl]-1H-pyrrolo[2,3-b]pyridin-5-yl]phenyl]acetamide]
Cn1cc(Nc2ncc(-c3ccc(CC(=O)Nc4cc(C(F)(F)F)ccn4)cc3F)cn2)cn1 [Compound P-0017, 2-[3-fluoro-4-[2-[(1-methylpyrazol-4-yl)amino]pyrimidin-5-yl]phenyl]-N-[4-(trifluoromethyl)-2-pyridyl]acetamide]
CCn1cc(Nc2ncc(-c3ccc(CC(=O)Nc4cncc(C(F)(F)F)c4)c(F)c3)cn2)cn1 [Compound P-0258, 2-[4-[2-[(1-ethylpyrazol-4-yl)amino]pyrimidin-5-yl]-2-fluoro-phenyl]-N-[5-(trifluoromethyl)-3-pyridyl]acetamide]
O=C(Cc1ccc(-c2cnc(Nc3cnn(C4CC4)c3)nc2)cc1)Nc1ccc(C(F)(F)F)nc1 [Compound P-0235, 2-[4-[2-[(1-cyclopropylpyrazol-4-yl)amino]pyrimidin-5-yl]phenyl]-N-[6-(trifluoromethyl)-3-pyridyl]acetamide]
COCCn1cc(Nc2ncc(-c3ccc(CC(=O)Nc4ccc(C(F)(F)F)cn4)cc3)cn2)cn1 [Compound P-0274, 2-[4-[2-[[1-(2-methoxyethyl)pyrazol-4-yl]amino]pyrimidin-5-yl]phenyl]-N-[5-(trifluoromethyl)-2-pyridyl]acetamide]
COc1ncc(NC(=O)Cc2ccc(-c3cnc4[nH]c(C#CC(C)(C)C)cc4c3)cc2)cc1C(F)(F)F [Compound P-0219, 2-[4-[2-(3,3-dimethylbut-1-ynyl)-1H-pyrrolo[2,3-b]pyridin-5-yl]phenyl]-N-[6-methoxy-5-(trifluoromethyl)-3-pyridyl]acetamide]
COc1ncc(NC(=O)Cc2ccc(-c3cnc4[nH]nc(N)c4c3)c(F)c2)cc1C(F)(F)F [Compound P-0203, 2-[4-(3-amino-1H-pyrazolo[3,4-b]pyridin-5-yl)-3-fluoro-phenyl]-N-[6-methoxy-5-(trifluoromethyl)-3-pyridyl]acetamide]
Cn1cc(Nc2ncc(-c3ccc(CC(=O)Nc4cncc(C(F)(F)F)c4)cc3F)cn2)cn1 [Compound P-0205, 2-[3-fluoro-4-[2-[(1-methylpyrazol-4-yl)amino]pyrimidin-5-yl]phenyl]-N-[5-(trifluoromethyl)-3-pyridyl]acetamide]
CCn1cc(Nc2ncc(-c3ccc(CC(=O)Nc4cnc(Cl)c(C(F)(F)F)c4)c(F)c3)cn2)cn1 [Compound P-0260, N-[6-chloro-5-(trifluoromethyl)-3-pyridyl]-2-[4-[2-[(1-ethylpyrazol-4-yl)amino]pyrimidin-5-yl]-2-fluoro-phenyl]acetamide]
COc1ncc(NC(=O)Cc2ccc(-c3cnc4[nH]c(-c5ccnc(C#N)c5)cc4c3)cc2F)cc1C(F)(F)F [Compound P-0013, 2-[4-[2-(2-cyano-4-pyridyl)-1H-pyrrolo[2,3-b]pyridin-5-yl]-2-fluoro-phenyl]-N-[6-methoxy-5-(trifluoromethyl)-3-pyridyl]acetamide]
O=C(Cc1ccc(-c2cnc(Nc3cnn(C4CC4)c3)nc2)cc1)Nc1cncc(C(F)(F)F)c1 [Compound P-0231, 2-[4-[2-[(1-cyclopropylpyrazol-4-yl)amino]pyrimidin-5-yl]phenyl]-N-[5-(trifluoromethyl)-3-pyridyl]acetamide]
CCn1cc(Nc2ncc(-c3ccc(CC(=O)Nc4ccc(C(F)(F)F)cn4)c(F)c3)cn2)cn1 [Compound P-0256, 2-[4-[2-[(1-ethylpyrazol-4-yl)amino]pyrimidin-5-yl]-2-fluoro-phenyl]-N-[5-(trifluoromethyl)-2-pyridyl]acetamide]
O=C(Cc1ccc(-c2cnc(Nc3cnn(C4CC4)c3)nc2)cc1F)Nc1cc(C(F)(F)F)ccn1 [Compound P-0244, 2-[4-[2-[(1-cyclopropylpyrazol-4-yl)amino]pyrimidin-5-yl]-2-fluoro-phenyl]-N-[4-(trifluoromethyl)-2-pyridyl]acetamide]
CCn1cc(Nc2ncc(-c3ccc(CC(=O)Nc4ccc(C(F)(F)F)cn4)cc3)cn2)cn1 [Compound P-0251, 2-[4-[2-[(1-ethylpyrazol-4-yl)amino]pyrimidin-5-yl]phenyl]-N-[5-(trifluoromethyl)-2-pyridyl]acetamide]

— patent US10160747B2, “Compounds and methods for kinase modulation, and indications therefor” (Plexxikon Inc., priority 2016, dated 2018)
